For eight compounds, T/C results are on record in PubChem BioAssay AID330 (DTP/NCI, 2004).

The test system of this assay is P388 leukemia ip, CD2F1 mice, survival T/C. In words: NCI In Vivo Anticancer Drug Screen. Data for tumor model P388 Leukemia (intraperitoneal) in CD2F1 (CDF1) mice. The settings on record: endpoint: median survival time, higher = longer survival. The procedure, abridged: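 Mice carrying the transplanted tumor received test compound or vehicle. Survival was recorded in each group, and the value is the treated-group measurement divided by that of the vehicle-treated control group.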

Values joined by “and” are separate entries in the source; they are usually repeats but may differ in a detail not shown here. Identical values can stand only once. Toxic doses and inconclusive results are not listed.

For the compound `CCCC(OC(C)=O)c1coc(C)c1` (stereo unspecified), the T/C reads like this: (dose: 100.0 mg/kg/injection, schedule: Q01DX001 (ip), vehicle: saline) 104 % of control; (dose: 200.0 mg/kg/injection, schedule: Q01DX001 (ip), vehicle: saline) 100 % of control; (dose: 400.0 mg/kg/injection, schedule: Q01DX001 (ip), vehicle: saline) 104 % of control.

`CC(C)C[NH-].CC(C)C[NH-].[Cl][Pt+2]([Cl])([Cl])[Cl]`: the T/C (dose: 5.56 mg/kg/injection, schedule: Q01DX009 (ip), vehicle: saline with Tween-80) was 169 % of control; the T/C (dose: 8.33 mg/kg/injection, schedule: Q01DX009 (ip), vehicle: saline with Tween-80) was 166 % of control; the T/C (dose: 12.5 mg/kg/injection, schedule: Q01DX009 (ip), vehicle: saline with Tween-80) was 166 % of control and 181 % of control.

For the compound `CN(C)c1ccc2[nH]c3ccccc3c2c1`, the T/C (dose: 60.0 mg/kg/injection, schedule: Q01DX005 (ip), vehicle: saline with Tween-80) was 107 % of control; the T/C (dose: 120.0 mg/kg/injection, schedule: Q01DX005 (ip), vehicle: saline with Tween-80) was 108 % of control; the T/C (dose: 240.0 mg/kg/injection, schedule: Q01DX005 (ip), vehicle: saline with Tween-80) was 121 % of control.

For the compound `CSc1nc(SC)c2c(C)cn(C3OC(C)C(O)C(O)C3O)c2n1` (stereo unspecified), the T/C is, setting by setting: (dose: 100.0 mg/kg/injection, schedule: Q01DX005 (ip), vehicle: saline with Tween-80) 94 % of control; (dose: 200.0 mg/kg/injection, schedule: Q01DX005 (ip), vehicle: saline with Tween-80) 93 % of control; (dose: 400.0 mg/kg/injection, schedule: Q01DX005 (ip), vehicle: saline with Tween-80) 97 % of control.

Turning to `CC(C)=C1N(C(C)C)C(=C(C)C)N(C(C)C)C(=C(C)C)N1C(C)C`, the T/C by setting is: (dose: 50.0 mg/kg/injection, schedule: Q01DX005 (ip), vehicle: Klucel (hydroxypropylcellulose) (HPC)) 96 % of control; (dose: 100.0 mg/kg/injection, schedule: Q01DX005 (ip), vehicle: Klucel (hydroxypropylcellulose) (HPC)) 100 % of control; (dose: 200.0 mg/kg/injection, schedule: Q01DX005 (ip), vehicle: Klucel (hydroxypropylcellulose) (HPC)) 89 % of control.

In the case of `COc1cc2cc(c1Cl)N1CCC(C)(O)C(=O)NC(C)C(=O)OC(CC1=O)C1(C)OC1C(C)C1CC(O)(NC(=O)O1)C(OC)/C=C\C=C(\C)C2OC` (stereo unspecified), the T/C (dose: 4.0 micrograms/kg/injection, schedule: Q01DX009 (ip), vehicle: distilled water + alcohol) is 150 % of control; the T/C (dose: 16.0 micrograms/kg/injection, schedule: Q01DX009 (ip), vehicle: distilled water + alcohol) was 157 % of control; the T/C (dose: 32.0 micrograms/kg/injection, schedule: Q01DX009 (ip), vehicle: distilled water + alcohol) was 150 % of control.

`CN1CCc2nc(N)nc(-c3nc(N)nc4c3CN(C)CC4)c2C1`: the T/C (dose: 60.0 mg/kg/injection, schedule: Q01DX005 (ip), vehicle: saline) is 100 % of control; the T/C (dose: 120.0 mg/kg/injection, schedule: Q01DX005 (ip), vehicle: saline) was 104 % of control; the T/C (dose: 240.0 mg/kg/injection, schedule: Q01DX005 (ip), vehicle: saline) is 106 % of control.

For the compound `c1ccc2c(NCCCCCCNc3c4ccccc4nc4ccccc34)c3ccccc3nc2c1`, the T/C runs as follows: (dose: 0.62 mg/kg/injection, schedule: Q## X009 (ip), vehicle: lactic acid) 124 % of control; (dose: 1.25 mg/kg/injection, schedule: Q01DX009 (ip), vehicle: Klucel (hydroxypropylcellulose) (HPC)) 119 % of control; (dose: 1.25 mg/kg/injection, schedule: Q01DX009 (ip), vehicle: water) 121 % of control; (dose: 1.25 mg/kg/injection, schedule: Q01DX009 (oral), vehicle: Klucel (hydroxypropylcellulose) (HPC)) 99 % of control; (dose: 2.16 mg/kg/injection, schedule: Q01DX009 (ip), vehicle: Klucel (hydroxypropylcellulose) (HPC)) 155 % of control; (dose: 2.16 mg/kg/injection, schedule: Q01DX009 (ip), vehicle: lactic acid) 156 % of control. The T/C reads like this: (dose: 2.5 mg/kg/injection, schedule: Q01DX009 (oral), vehicle: Klucel (hydroxypropylcellulose) (HPC)) 106 % of control; (dose: 2.5 mg/kg/injection, schedule: Q## X009 (ip), vehicle: lactic acid) 152 % of control; (dose: 2.59 mg/kg/injection, schedule: Q01DX009 (ip), vehicle: lactic acid) 150 % of control; (dose: 3.6 mg/kg/injection, schedule: Q01DX009 (ip), vehicle: Klucel (hydroxypropylcellulose) (HPC)) 163 % of control; (dose: 3.6 mg/kg/injection, schedule: Q01DX009 (ip), vehicle: lactic acid) 154 % of control; (dose: 4.32 mg/kg/injection, schedule: Q01DX009 (ip), vehicle: lactic acid) 150 % of control. Moreover, the T/C runs as follows: (dose: 5.0 mg/kg/injection, schedule: Q01DX009 (oral), vehicle: Klucel (hydroxypropylcellulose) (HPC)) 93 % of control; (dose: 5.4 mg/kg/injection, schedule: Q01DX009 (ip), vehicle: other) 156 % of control; (dose: 6.0 mg/kg/injection, schedule: Q01DX009 (ip), vehicle: Klucel (hydroxypropylcellulose) (HPC)) 180 % of control; (dose: 7.2 mg/kg/injection, schedule: Q01DX009 (ip), vehicle: Klucel (hydroxypropylcellulose) (HPC)) 157 % of control; (dose: 7.2 mg/kg/injection, schedule: Q01DX009 (ip), vehicle: lactic acid) 150 % of control; (dose: 7.2 mg/kg/injection, schedule: Q04DX003 (ip), vehicle: other) 118 % of control. The T/C runs as follows: (dose: 7.78 mg/kg/injection, schedule: Q01DX003 (ip), vehicle: water) 101 % of control; (dose: 7.78 mg/kg/injection, schedule: Q01DX009 (oral), vehicle: Klucel (hydroxypropylcellulose) (HPC)) 101 % of control; (dose: 7.78 mg/kg/injection, schedule: Q01DX009 (oral), vehicle: lactic acid) 111 % of control; (dose: 9.0 mg/kg/injection, schedule: Q01DX009 (ip), vehicle: other) 165 % of control; (dose: 10.0 mg/kg/injection, schedule: Q01DX009 (ip), vehicle: Klucel (hydroxypropylcellulose) (HPC)) 173 % of control; (dose: 10.0 mg/kg/injection, schedule: Q01DX009 (ip), vehicle: other) 150 % of control. Further, the T/C reads like this: (dose: 10.0 mg/kg/injection, schedule: Q01DX009 (ip), vehicle: water) 150 % of control; (dose: 10.0 mg/kg/injection, schedule: Q01DX009 (oral), vehicle: Klucel (hydroxypropylcellulose) (HPC)) 97 % of control; (dose: 12.0 mg/kg/injection, schedule: Q01DX009 (ip), vehicle: Klucel (hydroxypropylcellulose) (HPC)) 154 % of control; (dose: 12.0 mg/kg/injection, schedule: Q04DX003 (ip), vehicle: other) 95 % of control; (dose: 13.0 mg/kg/injection, schedule: Q01DX003 (ip), vehicle: water) 101 % of control; (dose: 13.0 mg/kg/injection, schedule: Q01DX009 (oral), vehicle: Klucel (hydroxypropylcellulose) (HPC)) 100 % of control. In addition, the T/C runs as follows: (dose: 13.0 mg/kg/injection, schedule: Q01DX009 (oral), vehicle: lactic acid) 104 % of control; (dose: 15.0 mg/kg/injection, schedule: Q01DX009 (ip), vehicle: other) 168 % of control; (dose: 20.0 mg/kg/injection, schedule: Q01DX009 (oral), vehicle: Klucel (hydroxypropylcellulose) (HPC)) 108 % of control; (dose: 21.6 mg/kg/injection, schedule: Q01DX009 (oral), vehicle: Klucel (hydroxypropylcellulose) (HPC)) 100 % of control; (dose: 21.6 mg/kg/injection, schedule: Q01DX009 (oral), vehicle: lactic acid) 96 % of control; (dose: 36.0 mg/kg/injection, schedule: Q01DX009 (oral), vehicle: Klucel (hydroxypropylcellulose) (HPC)) 104 % of control. In addition, the T/C (dose: 36.0 mg/kg/injection, schedule: Q01DX009 (oral), vehicle: lactic acid) is 96 % of control; the T/C (dose: 40.0 mg/kg/injection, schedule: Q01DX009 (oral), vehicle: Klucel (hydroxypropylcellulose) (HPC)) is 93 % of control; the T/C (dose: 60.0 mg/kg/injection, schedule: Q01DX009 (oral), vehicle: Klucel (hydroxypropylcellulose) (HPC)) was 96 % of control; the T/C (dose: 60.0 mg/kg/injection, schedule: Q01DX009 (oral), vehicle: lactic acid) was 93 % of control; the T/C (dose: 80.0 mg/kg/injection, schedule: Q01DX009 (oral), vehicle: Klucel (hydroxypropylcellulose) (HPC)) is 97 % of control; the T/C (dose: 100.0 mg/kg/injection, schedule: Q01DX009 (oral), vehicle: Klucel (hydroxypropylcellulose) (HPC)) is 95 % of control. Besides, the T/C runs as follows: (dose: 100.0 mg/kg/injection, schedule: Q01DX009 (oral), vehicle: lactic acid) 99 % of control; (dose: 167.0 mg/kg/injection, schedule: Q01DX009 (oral), vehicle: Klucel (hydroxypropylcellulose) (HPC)) 108 % of control; (dose: 167.0 mg/kg/injection, schedule: Q01DX009 (oral), vehicle: lactic acid) 103 % of control.
